Literature values in patent US20200254068A1, “METHODS FOR TREATING TRAUMATIC BRAIN INJURY” (LOMA LINDA UNIVERSITY, priority 2017, published 2020).

Conditions: given acutely, goal of reducing cerebral edema

## C[C@@H]1C[C@H]2[C@@H]3CCC4=CC(=O)C=C[C@]4(C)[C@@]3(F)[C@@H](O)C[C@]2(C)[C@@]1(O)C(=O)CO [dexamethasone]
  mortality rate in clinical TBI trials: increase the mortality rate

## CC(=O)[C@H]1CC[C@H]2[C@@H]3CCC4=CC(=O)CC[C@]4(C)[C@H]3CC[C@]12C [progesterone]
  outcome in clinical TBI trials: unsuccessful
